Results from ChEMBL document CHEMBL1201862, “PubChem BioAssay data set” (2004).
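All cell lines were grown in 96-well plates and treated with compound for 48 hours. GI50: concentration for 50% inhibition of growth.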 Activity calls are given as the source filed them. Cut-off read from the data, not from the text of the source: active = GI50 up to about 1.1 µM and inactive = higher.

Columns and labels:
Test in all cases: DTP human tumour cell line panel, 48 h
LOX IMVI = system: LOX IMVI
HCC 2998 = system: HCC 2998
Malme-3M = system: Malme-3M
OVCAR-5 = system: OVCAR-5
TK-10 = system: TK-10
NCI-H226 = system: NCI-H226
HL-60 = system: HL-60
SNB-19 = system: SNB-19
SK-MEL-5 = system: SK-MEL-5
SF-268 = system: SF-268
786-0 = system: 786-0
NCI-H460 = system: NCI-H460
MDA-MB-435 = system: MDA-MB-435
DU-145 = system: DU-145
HT-29 = system: HT-29
Hs-578T = system: Hs-578T
SNB-75 = system: SNB-75
SF-539 = system: SF-539
OVCAR-3 = system: OVCAR-3

Measured: GI50

Cc1cc2c(=O)[nH]nc(N)c2c(N)n1
inactive: LOX IMVI > 100 µM | HCC 2998 > 100 µM | Malme-3M > 100 µM | OVCAR-5 > 100 µM | TK-10 > 100 µM | NCI-H226 > 100 µM | HL-60 > 100 µM | SNB-19 > 100 µM | SK-MEL-5 > 100 µM | SF-268 > 100 µM | 786-0 > 100 µM | NCI-H460 > 100 µM | MDA-MB-435 > 100 µM | DU-145 > 100 µM | HT-29 > 100 µM | Hs-578T > 100 µM

Cc1cc(S(=O)(=O)NC2=NNC(C)CN2)c(S)cc1Cl (stereo unspecified)
inactive: LOX IMVI 18.4 µM | HCC 2998 37.3 µM | Malme-3M 16.7 µM | SNB-75 93.5 µM | OVCAR-5 93.3 µM | TK-10 > 100 µM | NCI-H226 45.2 µM | HL-60 > 100 µM | SNB-19 60 µM | SK-MEL-5 35.1 µM | SF-268 15.9 µM | 786-0 35 µM | NCI-H460 54.2 µM | MDA-MB-435 32.2 µM | DU-145 75.7 µM | SF-539 43.9 µM | OVCAR-3 53.7 µM | HT-29 62.2 µM

O=C(O)CCSCCCN1C(=O)c2ccccc2C1=O
inactive: HCC 2998 > 100 µM | Malme-3M > 100 µM | SNB-75 > 100 µM | OVCAR-5 > 100 µM | TK-10 > 100 µM | NCI-H226 > 100 µM | SNB-19 > 100 µM | SK-MEL-5 > 100 µM | SF-268 > 100 µM | 786-0 > 100 µM | SF-539 > 100 µM | OVCAR-3 > 100 µM | HT-29 > 100 µM

Cc1csc(-n2c(C)nc3cc(Cl)ccc3c2=O)n1
inactive: LOX IMVI 96.2 µM | HCC 2998 > 100 µM | SNB-75 > 100 µM | OVCAR-5 > 100 µM | TK-10 > 100 µM | NCI-H226 > 100 µM | HL-60 > 100 µM | SNB-19 > 100 µM | SK-MEL-5 43.1 µM | SF-268 42.8 µM | 786-0 > 100 µM | NCI-H460 > 100 µM | MDA-MB-435 > 100 µM | DU-145 > 100 µM | SF-539 > 100 µM | OVCAR-3 78.9 µM | HT-29 > 100 µM

C/C(=N\NC(=S)N1CCN(C)CC1)c1nc2cccnc2[nH]1
inactive: LOX IMVI > 100 µM | HCC 2998 > 100 µM | Malme-3M > 100 µM | SNB-75 > 100 µM | OVCAR-5 > 100 µM | TK-10 54.7 µM | NCI-H226 > 100 µM | HL-60 > 100 µM | SNB-19 > 100 µM | SK-MEL-5 > 100 µM | SF-268 > 100 µM | 786-0 > 100 µM | NCI-H460 > 100 µM | MDA-MB-435 > 100 µM | SF-539 > 100 µM | OVCAR-3 > 100 µM | HT-29 > 100 µM | Hs-578T > 100 µM

CCOC(=O)c1ccc2c(c1)Cc1cc([N+](=O)[O-])ccc1-2
inactive: LOX IMVI 41.2 µM | Malme-3M > 100 µM | OVCAR-5 57.4 µM | TK-10 24.4 µM | NCI-H226 17.8 µM | HL-60 76.2 µM | SNB-19 > 100 µM | SK-MEL-5 17.3 µM | SF-268 24 µM | 786-0 86.5 µM | NCI-H460 50.9 µM | MDA-MB-435 43.1 µM | DU-145 > 100 µM | SF-539 36.1 µM | OVCAR-3 46.6 µM | HT-29 27.1 µM | Hs-578T 48.9 µM

CS(=O)(=O)c1nc(-c2cc3c(c(S(C)(=O)=O)n2)CCCC3)cc2c1CCCCC2
inactive: SNB-75 22.4 µM | OVCAR-5 > 100 µM | TK-10 > 100 µM | NCI-H226 > 100 µM | HL-60 > 100 µM | SNB-19 > 100 µM | SK-MEL-5 > 100 µM | SF-268 16.8 µM | 786-0 > 100 µM | MDA-MB-435 > 100 µM | DU-145 > 100 µM | OVCAR-3 > 100 µM | HT-29 > 100 µM

CCOC(=O)c1ccc(NCc2ccc3nc(OC)c(OC)nc3c2)cc1
inactive: LOX IMVI > 100 µM | HCC 2998 > 100 µM | Malme-3M > 100 µM | SNB-75 33.7 µM | OVCAR-5 > 100 µM | NCI-H226 > 100 µM | HL-60 47.8 µM | SNB-19 > 100 µM | SK-MEL-5 > 100 µM | SF-268 > 100 µM | 786-0 94.8 µM | NCI-H460 > 100 µM | MDA-MB-435 > 100 µM | DU-145 > 100 µM | SF-539 > 100 µM | OVCAR-3 > 100 µM | HT-29 > 100 µM

COc1ccc(-c2nc(SCC(=O)N/N=C/c3ccc(O)c(OC)c3)[nH]c2-c2ccc(OC)cc2)cc1
inactive: LOX IMVI 22.8 µM | HCC 2998 17.7 µM | Malme-3M 37.8 µM | SNB-75 47.5 µM | OVCAR-5 27.8 µM | TK-10 41 µM | HL-60 11.2 µM | SNB-19 41.1 µM | SK-MEL-5 17.7 µM | SF-268 54.6 µM | 786-0 19.8 µM | NCI-H460 23.2 µM | MDA-MB-435 32.4 µM | DU-145 39.8 µM | SF-539 21.4 µM | OVCAR-3 18.8 µM | HT-29 21.9 µM
